# Values of other authors in PMC5111556 (Organic & biomolecular chemistry, 2016).
# Tested on: αvβ3
substance,measurement,value
Cilengitide,αvβ3-targeted antiangiogenic therapy (in words),initial promise
